Data as given in US20210040118A1, “IMMUNOMODULATORS, COMPOSITIONS AND METHODS THEREOF” (BETTA PHARMACEUTICALS CO., LTD, priority 2018, published 2021).
Blank lines part the entries; values can stand above or below the compound they belong to.

Target: T1, PD-1/PD-L1 (Homo sapiens, UniProt Q9NZQ7)
T1 construct: Recombinant human PD-L1 protein (19-238) with a His-tag at the C-terminus; purchased AcroBiosystems PD1-H5229 (PD-L1); PD1-H5257 (PD-1)
Assay: PD-1/PD-L1 homogenous time-resolved fluorescence (HTRF) binding assay
Settings: recombinant human PD-L1 (19-238) His-tag / human PD-1 (25-167) Fc tag, class symbols
Procedure, shortened: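 Inhibitors were preincubated 40 min at 25°C with 10 nM His-tagged human PD-L1 (19-238) and 3 nM Fc-tagged human PD-1 (25-167) in PBS pH 7.4 containing Tween-20, BSA and 1% DMSO. After 60 min with europium anti-human IgG and anti-His-APC, 665/620 nm signal ratio gave IC50 via percent-control fit.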

T1 sequence (Q9NZQ7 19-238): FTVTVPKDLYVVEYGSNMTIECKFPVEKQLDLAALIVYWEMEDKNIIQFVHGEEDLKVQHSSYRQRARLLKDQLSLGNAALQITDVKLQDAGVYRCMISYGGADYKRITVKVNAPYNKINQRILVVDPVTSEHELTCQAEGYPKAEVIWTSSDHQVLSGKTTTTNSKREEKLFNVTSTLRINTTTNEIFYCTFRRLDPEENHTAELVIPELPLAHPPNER

Compound: COC(=O)N[C@H](C(=O)N1CCc2nc(C(=O)N3CCc4c(-c5cccc6c5CCN6C(=O)c5ccc6c(n5)CCN(C(=O)[C@@H](NC(=O)OC)C(C)C)C6)cccc43)ccc2C1)C(C)C [Example 168, dimethyl ((2S,2'S)-(([4,4′-biindoline]-1,1′-dicarbonyl)bis(7,8-dihydro-1,6-naphthyridine-2,6(5H)-diyl))bis(3-methyl-1-oxobutane-1,2-diyl))dicarbamate]
- IC50: < 25 nM

Compound: CC(C)(C(=O)NS(C)(=O)=O)N1CCc2nc(C(=O)N3CCc4c(-c5cccc6c5CCN6C(=O)c5nc6c(s5)CN(C(C)(C)C(=O)NS(C)(=O)=O)CC6)cccc43)sc2C1 [Example 128, 2,2′-(([4,4′-biindoline]-1,1′-dicarbonyl)bis(6,7-dihydrothiazolo[5,4-c]pyridine-2,5(4H)-diyl))bis(2-methyl-N-(methylsulfonyl)propanamide)]
- IC50: 25 to 100 nM

Compound: Cc1oc(=O)oc1COC(=O)N1CCc2nc(C(=O)Nc3cccc(-c4cccc(NC(=O)c5ccc6c(n5)CCN(C(=O)OCc5oc(=O)oc5C)C6)c4C)c3C)ccc2C1 [Example 184, bis((5-methyl-2-oxo-1,3-dioxol-4-yl)methyl) 2,2′-(((2,2′-dimethyl-[1,1′-biphenyl]-3,3′-diyl)bis(azanediyl))bis(carbonyl))bis(7,8-dihydro-1,6-naphthyridine-6(5H)-carboxylate)]
- IC50: > 200 nM

Compound: Cc1c(NC(=O)c2nc3c(s2)CNCC3)cccc1-c1cccc(NC(=O)c2nc3ccc(N)cc3s2)c1C [Example 11, N-(3′-(6-aminobenzo[d]thiazole-2-carboxamido)-2,2′-dimethyl-[1,1′-biphenyl]-3-yl)-4,5,6,7-tetrahydrothiazolo[5,4-c]pyridine-2-carboxamide]
- IC50: 100 to 200 nM

Compound: Cc1nc(C(=O)Nc2cccc(-c3cccc4c3CCN4C(=O)c3nc(C)c(CN[C@H](C(=O)O)C4CCOCC4)s3)c2Cl)sc1CN[C@H](C(=O)O)C1CCOCC1 [Example 61, (S)-2-((2-(3-(1-(5-(((S)-carboxy(tetrahydro-2H-pyran-4-yl)methylamino)methyl)-4-methylthiazole-2-carbonyl)indolin-4-yl)-2-chlorophenylcarbamoyl)-4-methylthiazol-5-yl)methylamino)-2-(tetrahydro-2H-pyran-4-yl)acetic acid]
- IC50: < 25 nM

Compound: CS(=O)(=O)NCCN1C2CCC1c1sc(C(=O)N3CCc4c(-c5cccc6c5CCN6C(=O)c5nc6c(s5)C5CCC(C6)N5CCNS(C)(=O)=O)cccc43)nc1C2 [Example 126, N,N′-((([4,4′-biindoline]-1,1′-dicarbonyl)bis(5,6,7,8-tetrahydro-4H-5,8-epiminocyclohepta[d]thiazole-2,9-diyl))bis(ethane-2,1-diyl))dimethanesulfonamide]
- IC50: < 25 nM

Compound: Cc1nc(C(=O)Nc2cccc(-c3cccc4c3CCN4C(=O)c3nc(C)c(CN4CCCC[C@H]4C(=O)O)s3)c2C)sc1CN1CCCC[C@H]1C(=O)O [Example 58, (S)-1-((2-(3-(1-(5-(((S)-2-carboxypiperidin-1-yl)methyl)-4-methylthiazole-2-carbonyl)indolin-4-yl)-2-methylphenylcarbamoyl)-4-methylthiazol-5-yl)methyl)piperidine-2-carboxylic acid]
- IC50: < 25 nM

Compound: Cc1c(NC(=O)c2nc3c(s2)CN(CC#N)CC3)cccc1-c1cccc(NC(=O)c2nc3c(s2)CN(CC#N)CC3)c1C [Example 80, N,N′-(2,2′-dimethyl-[1,1′-biphenyl]-3,3′-diyl)bis(5-(cyanomethyl)-4,5,6,7-tetrahydrothiazolo[5,4-c]pyridine-2-carboxamide)]
- IC50: < 25 nM

Compound: Cc1c(NC(=O)c2nnc([C@H](C)N3CCCC[C@H]3C(=O)O)s2)cccc1-c1cccc(NC(=O)c2nnc([C@H](C)N3CCCC[C@H]3C(=O)O)s2)c1C [Example 17, (2S,2'S)-1,1′-((1S,1'S)-((((2,2′-dimethyl-[1,1′-biphenyl]-3,3′-diyl)bis(azanediyl))bis(carbonyl))bis(1,3,4-thiadiazole-5,2-diyl))bis(ethane-1,1-diyl))bis(piperidine-2-carboxylic acid)]
- IC50: < 25 nM

Compound: Cc1c(Nc2nccc3cc(CN4CC[C@H](N(C)C)C4)cnc23)cccc1-c1cccc(Nc2nccc3cc(CN4CC[C@H](N(C)C)C4)cnc23)c1C [Example 153, N3,N3′-bis(3-(((S)-3-(dimethylamino)pyrrolidin-1-yl)methyl)-1,7-naphthyridin-8-yl)-2,2′-dimethyl-[1,1′-biphenyl]-3,3′-diamine]
- IC50: < 25 nM

Compound: COC(=O)CN1CCc2nc(C(=O)N3CCc4c(-c5cccc6c5CCN6C(=O)c5nc6c(s5)CN(CC(=O)OC)CC6)cccc43)sc2C1 [Example 102, dimethyl 2,2′-(([4,4′-biindoline]-1,1′-dicarbonyl)bis(6,7-dihydrothiazolo[5,4-c]pyridine-2,5(4H)-diyl))diacetate]
- IC50: < 25 nM

Compound: O=C(c1nc2c(s1)CNCC2)N1CCc2c(-c3cccc4c3CCN4c3nccc4cc(CNCCO)cnc34)cccc21 [Example 100, (1′-(3-(((2-hydroxyethyl)amino)methyl)-1,7-naphthyridin-8-yl)-[4,4′-biindolin]-1-yl)(4,5,6,7-tetrahydrothiazolo[5,4-c]pyridin-2-yl)methanone]
- IC50: < 25 nM

Compound: Cc1c(Nc2nccc3cc(CNCC(=O)N(C)C)cnc23)cccc1-c1cccc(Nc2nccc3cc(CNCC(=O)N(C)C)cnc23)c1C [Example 145, 2,2′-(((((2,2′-dimethyl-[1,1′-biphenyl]-3,3′-diyl)bis(azanediyl))bis(1,7-naphthyridine-8,3-diyl))bis(methylene))bis(azanediyl))bis(N,N-dimethylacetamide)]
- IC50: < 25 nM

Compound: Cc1c(NC(=O)c2cn3c(n2)CNCC3)cccc1-c1cccc(NC(=O)c2nc3c(s2)CNCC3)c1C [Example 10, N-(2,2′-dimethyl-3′-(5,6,7,8-tetrahydroimidazo[1,2-a]pyrazine-2-carboxamido)-[1,1′-biphenyl]-3-yl)-4,5,6,7-tetrahydrothiazolo[5,4-c]pyridine-2-carboxamide]
- IC50: < 25 nM

Compound: Cc1nc(C(=O)N2CCc3c(-c4cccc(NC(=O)c5ncc(CN(C)CCO)s5)c4)cccc32)sc1CN(C)C [Example 114, N-(3-(1-(5-((dimethylamino)methyl)-4-methylthiazole-2-carbonyl)indolin-4-yl)phenyl)-5-(((2-hydroxyethyl)(methyl)amino)methyl)thiazole-2-carboxamide]
- IC50: < 25 nM

Compound: NC(=O)CN1CCc2nc(C(=O)N3CCc4c(-c5cccc6c5CCN6C(=O)c5nc6c(s5)CN(CC(=O)O)CC6)cccc43)sc2C1 [Example 107, 2-(2-(1′-(5-(2-amino-2-oxoethyl)-4,5,6,7-tetrahydrothiazolo[5,4-c]pyridine-2-carbonyl)-[4,4′-biindoline]-1-carbonyl)-6,7-dihydrothiazolo[5,4-c]pyridin-5(4H)-yl)acetic acid]
- IC50: < 25 nM

Other lines, results leading:

- IC50: < 25 nM
Compound: Cc1c(NC(=O)c2nc3c(s2)CNCC3)cccc1-c1cccc(NC(=O)c2nc3c(s2)CNCC3)c1Cl [Example 48, N,N′-(2-chloro-2′-methylbiphenyl-3,3′-diyl)bis(4,5,6,7-tetrahydrothiazolo[5,4-c]pyridine-2-carboxamide)]

- IC50: < 25 nM
Compound: CNC(=O)CN1CCc2nc(C(=O)N3CCc4c(-c5cccc6c5CCN6C(=O)c5nc6c(s5)CN(CC(=O)NC)CC6)cccc43)sc2C1 [Example 105, 2,2′-(([4,4′-biindoline]-1,1′-dicarbonyl)bis(6,7-dihydrothiazolo[5,4-c]pyridine-2,5(4H)-diyl))bis(N-methylacetamide)]

- IC50: < 25 nM
Compound: Cc1c(NC(=O)c2nc3c(s2)CNCC3)cc(Cl)cc1-c1cc(Cl)cc(NC(=O)c2nc3c(s2)CNCC3)c1C [Example 93, N,N′-(5,5′-dichloro-2,2′-dimethyl-[1,1′-biphenyl]-3,3′-diyl)bis(4,5,6,7-tetrahydrothiazolo[5,4-c]pyridine-2-carboxamide)]

- IC50: < 25 nM
Compound: CNC(=O)CN1CCc2nc(C(=O)N3CCc4c(-c5cccc6c5CCN6C(=O)c5nc6c(s5)CN(CC(=O)O)CC6)cccc43)sc2C1 [Example 108, 2-(2-(1′-(5-(2-(methylamino)-2-oxoethyl)-4,5,6,7-tetrahydrothiazolo[5,4-c]pyridine-2-carbonyl)-[4,4′-biindoline]-1-carbonyl)-6,7-dihydrothiazolo[5,4-c]pyridin-5(4H)-yl)acetic acid]

- IC50: < 25 nM
Compound: Cc1c(Nc2nccc3cc(CNC4([C@H](C)O)CC4)cnc23)cccc1-c1cccc(Nc2nccc3cc(CNC4([C@H](C)O)CC4)cnc23)c1C [Example 157, (1S,1'S)-1,1′-((((((2,2′-dimethyl-[1,1′-biphenyl]-3,3′-diyl)bis(azanediyl))bis(1,7-naphthyridine-8,3-diyl))bis(methylene))bis(azanediyl))bis(cyclopropane-1,1-diyl))bis(ethan-1-ol)]

- IC50: < 25 nM
Compound: O=C(Nc1cccc(-c2cccc(NC(=O)c3ncc(CN[C@H](C(=O)O)C4CCOCC4)s3)c2Cl)c1Cl)c1ncc(CN[C@H](C(=O)O)C2CCOCC2)s1 [Example 71, (2S,2'S)-2,2′-((((((2,2′-dichloro-[1,1′-biphenyl]-3,3′-diyl)bis(azanediyl))bis(carbonyl))bis(thiazole-2,5-diyl))bis(methylene))bis(azanediyl))bis(2-(tetrahydro-2H-pyran-4-yl)acetic acid)]

- IC50: < 25 nM
Compound: Cc1c(NC(=O)c2nc3c(s2)CNCC3)cc(F)cc1-c1cc(F)cc(NC(=O)c2nc3c(s2)CNCC3)c1C [Example 96, N,N′-(5,5′-difluoro-2,2′-dimethyl-[1,1′-biphenyl]-3,3′-diyl)bis(4,5,6,7-tetrahydrothiazolo[5,4-c]pyridine-2-carboxamide)]

- IC50: < 25 nM
Compound: Cc1c(NC(=O)c2ncc(CNCCO)s2)cccc1-c1cccc(NC(=O)c2ncc(CNCCO)s2)c1C [Example 7, N,N′-(2,2′-dimethyl-[1,1′-biphenyl]-3,3′-diyl)bis(5-(((2-hydroxyethyl)amino)methyl)thiazole-2-carboxamide)]
